molecular target: T1, JAK3 (recombinant human kinase domain; h-jak3(810-1124)) (Homo sapiens, UniProt P52333); assay: Determination of IC50 of Janus Kinase (JAK) inhibition: JAK3, radioactive end-point assay with 33P-ATP; type: biochemical; details: JAK3 kinase domain; ATP 1.5 uM, peptide 50 uM, 20 minutes, room temperature, 10% DMSO; read-out: Ic50 h-jak3(810-1124)-sf9-c:no additive
T1 construct: h-jak3(810- 1124)-sf9-c; made in house; host or cells: Sf9 insect cells
T1 sequence (P52333 810-1124): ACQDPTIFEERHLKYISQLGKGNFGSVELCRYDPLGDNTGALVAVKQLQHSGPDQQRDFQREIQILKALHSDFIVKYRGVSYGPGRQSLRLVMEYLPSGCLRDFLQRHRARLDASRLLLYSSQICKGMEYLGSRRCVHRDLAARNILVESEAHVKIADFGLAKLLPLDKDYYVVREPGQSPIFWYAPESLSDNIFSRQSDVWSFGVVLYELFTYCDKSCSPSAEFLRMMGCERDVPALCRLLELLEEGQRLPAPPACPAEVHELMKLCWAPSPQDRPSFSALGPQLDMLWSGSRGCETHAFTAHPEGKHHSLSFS

IC50 [nM] | Compound
0.4 | COc1ccccc1CNC(=O)c1ccc(-c2cnc3[nH]cc(C(=O)N[C@@H](C)C(C)(C)C)c3n2)s1 [Example I-203, 2-[5-(2-Methoxy-benzylcarbamoyl)-thiophen-2-yl]-5H-pyrrolo[2,3-b]pyrazine-7-carboxylic acid ((S)-1,2,2-trimethyl-propyl)-amide]
163 | CS(=O)(=O)N1CCCC(CNC(=O)c2c[nH]c3ncc(C4CC4)nc23)C1 (stereo not shown) [Example I-108, 2-Cyclopropyl-5H-pyrrolo[2,3-b]pyrazine-7-carboxylic acid (1-methanesulfonyl-piperidin-3-ylmethyl)-amide]
740 | CCNC(=O)c1c[nH]c2ncc(Oc3ccc4c(c3)[C@H](NS(C)(=O)=O)CC4)nc12 [Example I-270, 2-((R)-3-Methanesulfonylamino-indan-5-yloxy)-5H-pyrrolo[2,3-b]pyrazine-7-carboxylic acid ethylamide]
14.7 | N#CCC(NC(=O)c1c[nH]c2ncc(C3CC3)nc12)C1CC1 (stereo not shown) [Example I-106, 2-Cyclopropyl-5H-pyrrolo[2,3-b]pyrazine-7-carboxylic acid (2-cyano-1-cyclopropyl-ethyl)-amide]
34.9 | CN(C)c1cnc2[nH]cc(C(=O)NCC(C)(C)CO)c2n1 [Example I-4, 2-Dimethylamino-5H-pyrrolo[2,3-b]pyrazine-7-carboxylic acid (3-hydroxy-2,2-dimethyl-propyl)-amide]
1410 | O=C(N[C@@H](CC1CCCCC1)[C@@H](O)[C@@H](O)C1CC1)c1c[nH]c2ncc(C3CC3)nc12 [Example I-88, 2-Cyclopropyl-5H-pyrrolo[2,3-b]pyrazine-7-carboxylic acid ((1S,2R,3S)-1-cyclohexylmethyl-3-cyclopropyl-2,3-dihydroxy-propyl)-amide]
13.1 | C[C@H](NC(=O)c1c[nH]c2ncc(-c3cn(-c4cccc(C(F)(F)F)c4)cn3)nc12)C(C)(C)C [Example I-146, 2-[1-(3-Trifluoromethyl-phenyl)-1H-imidazol-4-yl]-5H-pyrrolo[2,3-b]pyrazine-7-carboxylic acid ((S)-1,2,2-trimethyl-propyl)-amide]
4.61 | C[C@H](NC(=O)c1c[nH]c2ncc(-c3cn(-c4cccc(Cl)c4)cn3)nc12)C(C)(C)C [Example I-145, 2-[1-(3-Chloro-phenyl)-1H-imidazol-4-yl]-5H-pyrrolo[2,3-b]pyrazine-7-carboxylic acid ((S)-1,2,2-trimethyl-propyl)-amide]
0.2 | C[C@H](NC(=O)c1c[nH]c2ncc(-c3ccc(C(=O)NCCS(N)(=O)=O)s3)nc12)C(C)(C)C [Example I-173, 2-[5-(2-Sulfamoyl-ethylcarbamoyl)-thiophen-2-yl]-5H-pyrrolo[2,3-b]pyrazine-7-carboxylic acid ((S)-1,2,2-trimethyl-propyl)-amide]
199 | CC(=O)NC1Cc2ccc(Oc3cnc4[nH]cc(C(=O)NC(C)C)c4n3)cc2C1 (stereo not shown) [Example I-300, 2-(2-Acetylamino-indan-5-yloxy)-5H-pyrrolo[2,3-b]pyrazine-7-carboxylic acid isopropylamide]
211 | C[C@H](NC(=O)c1c[nH]c2ncc(Oc3ccccc3)nc12)C(C)(C)O [Example I-128, 2-Phenoxy-5H-pyrrolo[2,3-b]pyrazine-7-carboxylic acid ((S)-2-hydroxy-1,2-dimethyl-propyl)-amide]
891 | C[C@@H](NC(=O)c1c[nH]c2ncc(Oc3ccc(F)cc3F)nc12)C(C)(C)C [Example I-134, 2-(2,4-Difluoro-phenoxy)-5H-pyrrolo[2,3-b]pyrazine-7-carboxylic acid ((R)-1,2,2-trimethyl-propyl)-amide]
118 | CC(C)NC(=O)c1c[nH]c2ncc(Oc3ccc4c(c3)[C@H](NC=O)CC4)nc12 [Example I-301, 2-((R)-3-Formylamino-indan-5-yloxy)-5H-pyrrolo[2,3-b]pyrazine-7-carboxylic acid isopropylamide]
180 | CC(C)[C@H](NC(=O)c1c[nH]c2ncc(C3CC3)nc12)C(C)(C)O [Example I-24, 2-Cyclopropyl-5H-pyrrolo[2,3-b]pyrazine-7-carboxylic acid ((S)-2-hydroxy-1-isopropyl-2-methyl-propyl)-amide]
6.28 | C[C@H](NC(=O)c1c[nH]c2ncc(-c3ccc(C(F)(F)F)cc3)nc12)C(C)(C)C [Example I-143, 2-(4-Trifluoromethyl-phenyl)-5H-pyrrolo[2,3-b]pyrazine-7-carboxylic acid ((S)-1,2,2-trimethyl-propyl)-amide]
126 | C[C@H](NC(=O)c1c[nH]c2ncc(C3CCCC3)nc12)C(C)(C)O [Example I-6, 2-Cyclopentyl-5H-pyrrolo[2,3-b]pyrazine-7-carboxylic acid ((S)-2-hydroxy-1,2-dimethyl-propyl)-amide]
10 | C[C@H](NC(=O)c1c[nH]c2ncc(-c3ccccn3)nc12)C(C)(C)C [Example I-72, 2-Pyridin-2-yl-5H-pyrrolo[2,3-b]pyrazine-7-carboxylic acid ((S)-1,2,2-trimethyl-propyl)-amide]

IC50 [nM] | Compound
7.25 | C[C@@H](NC(=O)c1c[nH]c2ncc(-c3cccs3)nc12)C(C)(C)O [Example I-103, 2-Thiophen-2-yl-5H-pyrrolo[2,3-b]pyrazine-7-carboxylic acid ((R)-2-hydroxy-1,2-dimethyl-propyl)-amide]
0.32 | C[C@H](NC(=O)c1c[nH]c2ncc(-c3ccc(C(=O)N4CC(C(N)=O)C4)s3)nc12)C(C)(C)C [Example I-179, 2-[5-(3-Carbamoyl-azetidine-1-carbonyl)-thiophen-2-yl]-5H-pyrrolo[2,3-b]pyrazine-7-carboxylic acid ((S)-1,2,2-trimethyl-propyl)-amide]
2990 | CCNC(=O)c1c[nH]c2ncc(Oc3cccc4ccccc34)nc12 [Example I-261, 2-(Naphthalen-1-yloxy)-5H-pyrrolo[2,3-b]pyrazine-7-carboxylic acid ethylamide]
0.47 | C[C@H](NC(=O)c1c[nH]c2ncc(-c3ccc(C(=O)N[C@H](C)C(C)(C)C)s3)nc12)C(C)(C)C [Example I-209, 2-[5-((R)-1,2,2-Trimethyl-propylcarbamoyl)-thiophen-2-yl]-5H-pyrrolo[2,3-b]pyrazine-7-carboxylic acid ((S)-1,2,2-trimethyl-propyl)-amide]
63.8 | CC(C)[C@H](C)NC(=O)c1c[nH]c2ncc(Oc3ccccc3)nc12 [Example I-122, 2-Phenoxy-5H-pyrrolo[2,3-b]pyrazine-7-carboxylic acid ((S)-1,2-dimethyl-propyl)-amide]
228 | C[C@H]1C[C@H]1c1cnc2[nH]cc(C(=O)NCC(C)(C)CO)c2n1 [Example I-46, 2-((1R,2S)-2-Methyl-cyclopropyl)-5H-pyrrolo[2,3-b]pyrazine-7-carboxylic acid (3-hydroxy-2,2-dimethyl-propyl)-amide]
45.4 | C[C@@H](NC(=O)c1c[nH]c2ncc(C3=CCOCC3)nc12)C(C)(C)O [Example I-110, 2-(3,6-Dihydro-2H-pyran-4-yl)-5H-pyrrolo[2,3-b]pyrazine-7-carboxylic acid ((R)-2-hydroxy-1,2-dimethyl-propyl)-amide]
810 | CCNC(=O)c1c[nH]c2ncc(Oc3cccc(OC)c3)nc12 [Example I-264, 2-(3-Methoxy-phenoxy)-5H-pyrrolo[2,3-b]pyrazine-7-carboxylic acid ethylamide]
112 | C[C@H](CO)NC(=O)c1c[nH]c2ncc(C3CC3)nc12 [Example I-41, 2-Cyclopropyl-5H-pyrrolo[2,3-b]pyrazine-7-carboxylic acid ((R)-2-hydroxy-1-methyl-ethyl)-amide]
0.32 | CONC(=O)c1ccc(-c2cnc3[nH]cc(C(=O)N[C@@H](C)C(C)(C)C)c3n2)s1 [Example I-197, 2-(5-Methoxy-carbamoyl-thiophen-2-yl)-5H-pyrrolo[2,3-b]pyrazine-7-carboxylic acid ((S)-1,2,2-trimethyl-propyl)-amide]
931 | COc1ccccc1Oc1cnc2[nH]cc(C(=O)NC(C)C)c2n1 [Example I-256, 2-(2-Methoxy-phenoxy)-5H-pyrrolo[2,3-b]pyrazine-7-carboxylic acid isopropylamide]
0.58 | C[C@H](Cc1ccccc1)NC(=O)c1ccc(-c2cnc3[nH]cc(C(=O)N[C@@H](C)C(C)(C)C)c3n2)s1 [Example I-170, 2-[5-((R)-1-Methyl-2-phenyl-ethylcarbamoyl)-thiophen-2-yl]-5H-pyrrolo[2,3-b]pyrazine-7-carboxylic acid ((S)-1,2,2-trimethyl-propyl)-amide]
0.11 | C[C@H](NC(=O)c1c[nH]c2ncc(-c3ccc(C(=O)N4CCS(=O)(=O)CC4)s3)nc12)C(C)(C)C [Example I-213, 2-[5-(1,1-Dioxo-1λ^6-thiomorpholine-4-carbonyl)-thiophen-2-yl]-5H-pyrrolo[2,3-b]pyrazine-7-carboxylic acid ((S)-1,2,2-trimethyl-propyl)-amide]
58.9 | COCC(C)(C)CNC(=O)c1c[nH]c2ncc(C3CC3)nc12 [Example I-59, 2-Cyclopropyl-5H-pyrrolo[2,3-b]pyrazine-7-carboxylic acid (3-methoxy-2,2-dimethyl-propyl)-amide]
7.49 | CC(C)(CO)CNC(=O)c1c[nH]c2ncc(Nc3ccccc3)nc12 [Example I-15, 2-Phenylamino-5H-pyrrolo[2,3-b]pyrazine-7-carboxylic acid (3-hydroxy-2,2-dimethyl-propyl)-amide]
0.32 | C[C@H](NC(=O)c1c[nH]c2ncc(-c3ccc(C(=O)NCc4ccc(F)cc4)s3)nc12)C(C)(C)C [Example I-185, 2-[5-(4-Fluoro-benzylcarbamoyl)-thiophen-2-yl]-5H-pyrrolo[2,3-b]pyrazine-7-carboxylic acid ((S)-1,2,2-trimethyl-propyl)-amide]
0.22 | C[C@H](CS(C)(=O)=O)NC(=O)c1ccc(-c2cnc3[nH]cc(C(=O)N[C@@H](C)C(C)(C)C)c3n2)s1 [Example I-211, 2-[5-((R)-2-Methanesulfonyl-1-methyl-ethylcarbamoyl)-thiophen-2-yl]-5H-pyrrolo[2,3-b]pyrazine-7-carboxylic acid ((S)-1,2,2-trimethyl-propyl)-amide]

Source: patent US20140155376A1, “PYRROLOPYRAZINE KINASE INHIBITORS” (Hoffmann-La Roche Inc., priority 2010, published 2014)
